# Data reported in patent US20260226101A1, “PEPTIDE WITH ANTI-INFLAMMATORY AND ANTI-MICROBIAL ACTIVITY” (priority 2023, published 2026).
# Test: in vitro
# Type: cell-based, murine
# Settings: mouse
# Method: Cell viability of synthetic peptides on the growth of RAW264.7 cells was measured using the methyl thiazolyl tetrazolium (MTT) assay after 48 h. Briefly, exponentially growing macrophages RAW264.7 cells were mechanically scraped, plated at a density of 7×10^3 cells in 100 μl were seeded into each well of a 96-well plate then incubated for 12 h at 37° C. under 5% CO2, and then the cells are treated with test peptides: IS 111 ([…]) or dexamethasone ([…]) cells were incubated at 37° C. in the presence of 5% CO2 for 42 h. After incubation, the morphology of cells was examined under a microscope. Following incubation, MTT was added to the cells (20 μL at 5 mg/mL MTT dissolved in 1×PBS) and incubated for 4 hours in the presence of 5% CO2 at 37° C. Formazan crystals were dissolved by the addition of 100 μL of 100% DMSO per well. Plates were then gently swirled for 5 min at room temperature to dissolve the precipitate. Absorbance was monitored at 575 nm using a microplate reader. Maximum cytotoxicity (100%) was determined by cells incubated with 1% Triton X-100; PBS was used as a negative control. Cells without treatment were considered as control. The average absorbance for each sample group was used to evaluate cell viability.
# Optical density (O.D.) was calculated as the difference between the absorbance at the reference wavelength and that at the test wavelength. The relative cell viability was determined by the amount of MTT converted to the insoluble formazan salt. The data were expressed as the mean percentage of viable cells when compared with untreated cells (control). The half maximal growth inhibitory concentration (IC50) value was calculated from the line equation of the dose-dependent curve of each compound. The results were compared with the cytotoxic activity of dexamethasone, a known anti-inflammatory drug. […] Percentages of cell viability and LC50 of cells were calculated: Percent cell viability was calculated as (O.D. of drug-treated sample/control O.D.)×100. The data were expressed as percent cell viability compared with control (dimethyl sulfoxide/NS). The experiment was carried out in four samples of each concentration.
# The percentages of cell viability and LC50 of cells were calculated by using the formula below.
# Where Absorbance control is the DMSO 0.1%-treated cell absorbance, and Absorbance sample is the test sample-treated cell absorbance. LC50 values were derived from dose-response curves, and data were expressed as the mean of three independent experiments. Statistical analyses involved Student's t-test and one-way ANOVA.
# The test peptide IS 111 cytotoxic effects on RAW 264.7 mouse […] were determined by MTT assay. […] Cell viability was measured by MTT assay based on the conversion of yellow tetrazolium salt to form a purple formazan product. The viability of the RAW 264.7 cells can be seen on table 21.
smiles,measurement,value
"C[C@@H]1C[C@H]2[C@@H]3CCC4=CC(=O)C=C[C@]4(C)[C@@]3(F)[C@@H](O)C[C@]2(C)[C@@]1(O)C(=O)CO [Dexamethasone, dexamethasone, reference compound]","viability at 48 h, 7.8125 µg/mL",102%
same,"viability at 48 h, 15.625 µg/mL",90%
same,"viability at 48 h, 31.25 µg/mL",82.8%
same,"viability at 48 h, 62.5 µg/mL",91.4%
same,"viability at 48 h, 125 µg/mL",96%
same,"viability at 48 h, 250 µg/mL",90.8%
same,"viability at 48 h, 500 µg/mL",84.6%
